This is an account of results in ChEMBL document CHEMBL1932984, “Novel bis(indolyl)hydrazide-hydrazones as potent cytotoxic agents” (Bioorg Med Chem Lett, 2012).

Type in all cases: functional, cell-based
One experiment concerns LNCaP. Kind of experiment: Cytotoxicity against human LNCAP cells.
The next experiment has as its system MCF7. Briefly: Cytotoxicity against human MCF7 cells.
For the next experiment, the system named is MDA-MB-231. Briefly: Cytotoxicity against human MDA-MB-231 cells.
In the next experiment the test system is DU-145. Briefly: Cytotoxicity against human DU145 cells.
Another experiment relates to MIA PaCa-2. Kind of experiment: Cytotoxicity against human MIAPaCa2 cells.
The subject of another experiment is PC-3. Kind of experiment: Cytotoxicity against human PC3 cells.

A word on the IC50: it is the concentration that inhibits the measured activity by half. A high value points to weaker potency. As for `O=C(N/N=C\c1cn(Cc2ccc(Cl)cc2)c2ccccc12)c1c[nH]c2ccccc12`, the 50% inhibitory concentration (IC50) in the experiment with LNCaP is more than 100 µM; in the experiment on MCF7 it was 96.7 µM; in the experiment on MDA-MB-231, 66.4 µM; with DU-145 it was 52.1 µM; in the experiment with MIA PaCa-2, 44.3 µM; in the experiment with PC-3 it was 16.2 µM.

Regarding `O=C(N/N=C\c1cn(Cc2ccc(Cl)cc2)c2ccc(Br)cc12)c1c[nH]c2ccccc12`, the half-inhibitory concentration (IC50) worked out at 3.7 µM with LNCaP; 3.2 µM with MCF7; 1 µM in the experiment with MDA-MB-231; 3.6 µM in the experiment on DU-145; 8.7 µM in the experiment on MIA PaCa-2; 12.4 µM in the experiment with PC-3.

As for `COc1ccc2c(c1)c(/C=N\NC(=O)c1c[nH]c3ccccc13)cn2Cc1ccc(Cl)cc1`, the concentration for half-maximal inhibition (IC50) was more than 100 µM with LNCaP; 8.7 µM in the experiment on MCF7; 82.7 µM in the experiment with MDA-MB-231; 50 µM in the experiment with DU-145; 26.7 µM with MIA PaCa-2; 30.3 µM in the experiment on PC-3.

On to `O=C(N/N=C\c1cn(Cc2ccc(Cl)cc2)c2cc(F)ccc12)c1c[nH]c2ccccc12`, for which the IC50 was determined as 55.2 µM in the experiment on LNCaP; 6 µM in the experiment with MCF7; 5.3 µM in the experiment with MDA-MB-231; 18.6 µM with DU-145; 18 µM with MIA PaCa-2; 19.5 µM in the experiment with PC-3.

`COc1ccc2c(c1)c(/C=N\NC(=O)c1c[nH]c3ccc(Br)cc13)cn2Cc1ccc(Cl)cc1`: the IC50 is more than 100 µM in the experiment with LNCaP; 29.1 µM with MCF7; 5 µM in the experiment with MDA-MB-231; 57 µM with DU-145; 26.3 µM in the experiment with MIA PaCa-2; 15.9 µM in the experiment with PC-3.

In the case of `O=C(N/N=C\c1cn(Cc2ccc(Cl)cc2)c2cc(F)ccc12)c1c[nH]c2ccc(Br)cc12`, the half-inhibitory concentration (IC50) in the experiment on LNCaP was 24.8 µM; in the experiment with MCF7 it was 8.3 µM; in the experiment with MDA-MB-231, 5.1 µM; with DU-145 it was 12.5 µM; in the experiment on MIA PaCa-2 it was 10.6 µM; in the experiment on PC-3, 12.4 µM.

As to `COc1ccc(Cn2cc(/C=N\NC(=O)c3c[nH]c4ccccc34)c3ccccc32)cc1`, the half-inhibitory concentration (IC50) amounted to 31.9 µM with LNCaP; 12.4 µM with MCF7; 15.1 µM in the experiment with MDA-MB-231; 43.9 µM in the experiment on DU-145; 41.6 µM in the experiment with MIA PaCa-2; 14.6 µM in the experiment on PC-3.

Consider `COc1ccc(Cn2cc(/C=N\NC(=O)c3c[nH]c4ccccc34)c3cc(OC)ccc32)cc1`, for which the IC50 with LNCaP is more than 100 µM; in the experiment with MCF7, 15 µM; in the experiment with MDA-MB-231 it was 9.8 µM; with DU-145, 19.1 µM; in the experiment on MIA PaCa-2, 30.5 µM; with PC-3, 13.6 µM.

With `COc1ccc(Cn2cc(/C=N\NC(=O)c3c[nH]c4ccccc34)c3ccc(F)cc32)cc1`, the half-maximal inhibitory concentration (IC50) with LNCaP was more than 100 µM; in the experiment with MCF7 it was 13.1 µM; in the experiment on MDA-MB-231, 71.2 µM; with DU-145, 16.2 µM; in the experiment with MIA PaCa-2, 43.3 µM; with PC-3, 18.4 µM.

As to `COc1ccc(Cn2cc(/C=N\NC(=O)c3c[nH]c4ccc(Br)cc34)c3ccc(F)cc32)cc1`, the half-inhibitory concentration (IC50) was more than 100 µM with LNCaP; 31.7 µM in the experiment with MCF7; 99.8 µM in the experiment on MDA-MB-231; 67.5 µM in the experiment with DU-145; 45.5 µM with MIA PaCa-2; 21.8 µM with PC-3.

Take `COc1ccc(Cn2cc(/C=N\NC(=O)c3c[nH]c4ccc(Br)cc34)c3cc(OC)ccc32)cc1`: the IC50 was more than 100 µM with LNCaP; 3.1 µM in the experiment with MCF7; 61.2 µM with MDA-MB-231; 84.4 µM with DU-145; 44.5 µM in the experiment on MIA PaCa-2; 28 µM with PC-3.

`COc1ccc(Cn2cc(/C=N\NC(=O)c3cn(C)c4ccccc34)c3ccc(F)cc32)cc1`: the 50% inhibitory concentration (IC50) in the experiment with LNCaP is 9.6 µM; with MCF7, 22.6 µM; in the experiment with MDA-MB-231, 17.7 µM; in the experiment with DU-145, 15.2 µM; in the experiment on MIA PaCa-2, 55.8 µM; with PC-3 it was 12.8 µM.

Regarding `Cn1cc(C(=O)N/N=C\c2cn(Cc3ccc(Cl)cc3)c3cc(F)ccc23)c2ccccc21`, the IC50 in the experiment with LNCaP was more than 100 µM; in the experiment on MCF7, 90.6 µM; in the experiment on MDA-MB-231 it was more than 100 µM; with DU-145, 84.2 µM; in the experiment with MIA PaCa-2 it was 50.4 µM; in the experiment on PC-3, 22.1 µM.

`COc1ccc2c(c1)c(/C=N\NC(=O)c1cn(C)c3ccccc13)cn2Cc1ccc(Cl)cc1`: the concentration for half-maximal inhibition (IC50) in the experiment with LNCaP was more than 100 µM; in the experiment with MCF7 it was 99.1 µM; in the experiment on MDA-MB-231 it was more than 100 µM; in the experiment with DU-145, 93 µM; in the experiment with MIA PaCa-2, 56.4 µM; in the experiment with PC-3, 21.2 µM.

Consider `COc1cccc2c1C(=O)c1c(O)c3c(c(O)c1C2=O)C[C@@](O)(C(=O)CO)C[C@@H]3O[C@H]1C[C@H](N)[C@H](O)[C@H](C)O1` [DOXORUBICIN], for which the concentration for half-maximal inhibition (IC50) in the experiment with LNCaP turned out to be 5.23 µM; in the experiment on MCF7 it was 11.7 µM; with MDA-MB-231 it was 3.07 µM; in the experiment on DU-145, 15.7 µM; in the experiment with MIA PaCa-2, 18.2 µM; with PC-3, 62.3 µM.
